“And” between values parts separate entries of the source, which are not always exact repeats. Equal entries are not always repeated.
Assays:
[1] = tested on: H275Y mutated (oseltamivir-resistant) influenza A/H1N1pdm09 virus; conditions: human, in vivo
[2] = tested on: oseltamivir and peramivir-resistant influenza A/H1N1pdm09; conditions: five cases, treatment with oseltamivir or peramivir; cited from earlier work
[3] = target: neuraminidase of H275Y mutated influenza A/H1N1pdm09 virus isolates (Influenza A virus (H1N1pdm09), UniProt C3W5S3, H275Y); format: biochemical; conditions: read-out: 50% inhibitory concentration

Compound | Time to fever alleviation [1] [h] | Time until fever subsided from the start of treatment [2] [h] | also measured
[H]/N=C(\N)N[C@H]1C=C(C(=O)O)O[C@@H]([C@H](OC)[C@H](O)CO)[C@@H]1NC(C)=O [Laninamivir, laninamivir] | ≤ 48 | – | –
CCOC(=O)C1=C[C@@H](OC(CC)CC)[C@H](NC(C)=O)[C@@H](N)C1 [Oseltamivir, oseltamivir] | – | ≤ 48 | Average fever duration [1]: 89 h and 89 ± 47 h; Patients with fever alleviated within 48 hours [1]: 40%; Patients with prolonged fever, which continued for more than 100 hours [1]: 60%
CC(=O)N[C@H]1[C@H]([C@H](O)[C@H](O)CO)OC(C(=O)O)=C[C@@H]1N=C(N)N [Zanamivir, zanamivir] | ≤ 48 | – | –
peramivir | – | ≤ 48 | IC50 [3]: 24.7 nM and 22.1 nM and 29.8 nM and 19.1 nM and 18.7 nM and 22.4 nM and 23.3 nM
